Earlier results in patent US8895039B2, “Cosmetic preparations containing hydrocarbons” (Cognis IP Management GmbH, priority 2007, dated 2014).

Details: at 20° C.

## CCCCCCCCC [Nonane]
  Viscosity: 0.711 cP
